US20220192955A1, “AZOXYSTROBIN EFFICACY IN SCALP HEALTH” (The Procter & Gamble Company, priority 2020, published 2022)
Marks after values point to notes of the source that are not given here.

Legend:
IL-1RA: IL-1α = assay: Scalp tape strip inflammatory cytokines IL-1RA:IL-1α; type: in vivo, human
Procedure: (§1) Subjects are enrolled in a double-blind, randomized study for all test groups and have Baseline and Week 3 measurements of scalp health taken for flaking, itch and scalp health endpoints. Subjects take home a test product(s) and are instructed on use of test products throughout the study. Test products are solubilized in a hydroalcoholic leave-on formulation. Azoxystrobin raw material is sourced from AK Scientific Inc. (Union City, Calif.) as >97% pure. Azoxystrobin scalp treatment is prepared from a slurry of azoxystrobin in ethanol that is formulated to 0.1% (w/v) in a base chassis of 50% ethanol, 0.35% Ultrez 21 (rheology modifier), 0.05% neutrol TE and water (q.s.). […] Biomarkers of scalp health, including biomarkers of inflammation, itch, oxidative stress and barrier integrity are assessed by non-invasive tape strip sampling of the scalp surface to determine therapeutic resolution. All biomarkers are analyzed from D-Squame® scalp tape samples that are collected from the scalp of subjects before and after scalp treatment with either azoxystrobin or vehicle (Baseline, and Week 3 respectively). These are extracted and analyzed according to published methods (International Journal of Dermatology 2011, 50, 102-113, incorporated by reference herein). […] Human inflammatory cytokines are analyzed to evaluate skin irritation and inflammatory processes. […]

Myeloperoxidase = assay: Scalp tape strip myeloperoxidase protein; type: in vivo, human
Procedure: as §1, with “Myeloperoxidase protein is” for “Human inflammatory cytokines are”, “determine the impact of scalp treatment oxidative stress” for “evaluate skin irritation”, “potential oxidative damage.” for “inflammatory processes.”

human scalp (dandruff) = assay: In vivo scalp health study: adherent scalp flaking score (ASFS)
Procedure: Subjects are enrolled in a double-blind, randomized study for all test groups and have Baseline and Week 3 measurements of scalp health taken for flaking, itch and scalp health endpoints. Subjects take home a test product(s) and are instructed on use of test products throughout the study. Test products are solubilized in a hydroalcoholic leave-on formulation. Azoxystrobin raw material is sourced from AK Scientific Inc. (Union City, Calif.) as >97% pure. Azoxystrobin scalp treatment is prepared from a slurry of azoxystrobin in ethanol that is formulated to 0.1% (w/v) in a base chassis of 50% ethanol, 0.35% Ultrez 21 (rheology modifier), 0.05% neutrol TE and water (q.s.). Vehicle scalp treatment is prepared similarly without the addition of azoxystrobin raw material. Subjects apply either azoxystrobin or vehicle scalp treatments daily for 3 weeks. Grading of the scalp is performed by qualified expert graders for adherent scalp flaking scores (ASFS) as described in published methods. Detailed methods can be found in Journal of Dermatological Treatment 2014, 25, 232-236, incorporated by reference herein. Briefly, flaking severity of a subject is assessed by examination of the scalp which is illuminated by lighting that mimics daylight conditions. The scalp is divided into eight sections and each section is assessed for the presence of dandruff flakes that are adhering to the scalp skin using a 0 to 10 (increment of 2 units) scale. Loose flakes in the hair are not considered in the grading. The final, or total, ASFS is the sum of the grades for all eight scalp sections, which results in a scale ranging from 0 to 80 units. The change in flaking across time is reported as change from baseline at the 3-week time point.

[1] = 0.1% leave-on daily, Week 3, scalp tape strips

In the case of `CO/C=C(/C(=O)OC)c1ccccc1Oc1cc(Oc2ccccc2C#N)ncn1` [Azoxystrobin], the “IL-1RA: IL-1α ratio, % Change from Baseline” value (IL-1RA: IL-1α; [1]) is reported as −58.3* %, the “reduction of Interleukin-1 (IL-1RA: IL-1α)” value (IL-1RA: IL-1α; compared to a placebo control) is reported as 58% and the “Myeloperoxidase Results % Change from Baseline” value (Myeloperoxidase; [1]) is reported as 63.7* %. The reduction in myeloperoxidase (Myeloperoxidase; compared to a placebo control) was 64%, the “Flaking Results (ASFS Change from Baseline)” value (human scalp (dandruff); 0.1% (w/v) hydroalcoholic leave-on, daily, 3 weeks, dandruff subjects, scale 0 to 80) was −13.88 and the reduction in flaking (human scalp (dandruff); after 3 weeks of treatment) was 45%. The “ASFS reduction more than the placebo” value (human scalp (dandruff); after 3 weeks of treatment, p=0.002) was 4.7 units.
